In one series the test system is PburDRR. The series is described as follows: LC-MS product formation, substrate-inhibition fit. Particulars: reduction; 500 μM NADPH; Bis-tris, optimized pH and temperature (Table S12). Format: biochemical, Papaver burseri.
Another series relates to PglaDRR. The series is described as follows: LC-MS product formation, substrate-inhibition fit. Format: biochemical, Papaver glaucum. Particulars: reduction; 500 μM NADPH; Bis-tris, optimized pH and temperature (Table S12).
A further series deals with PlasDRR(REPI). The series is described as follows: LC-MS product formation, substrate-inhibition fit. The class given is biochemical, Papaver lasiothrix. Particulars: reduction; 500 μM NADPH; Bis-tris, optimized pH and temperature (Table S12).
In a further series the test system is PapoCOR1. The series is described as follows: LC-MS product formation, Michaelis-Menten fit. The class given is biochemical, Papaver apokrinomenon. The settings on record: reduction; 1 mM NADPH; Bis-tris, optimized pH and temperature (Table S12).
Another series deals with T1, PsomCOR (Papaver somniferum, UniProt Q9SQ68).
T1 sequence (Q9SQ68 1-321): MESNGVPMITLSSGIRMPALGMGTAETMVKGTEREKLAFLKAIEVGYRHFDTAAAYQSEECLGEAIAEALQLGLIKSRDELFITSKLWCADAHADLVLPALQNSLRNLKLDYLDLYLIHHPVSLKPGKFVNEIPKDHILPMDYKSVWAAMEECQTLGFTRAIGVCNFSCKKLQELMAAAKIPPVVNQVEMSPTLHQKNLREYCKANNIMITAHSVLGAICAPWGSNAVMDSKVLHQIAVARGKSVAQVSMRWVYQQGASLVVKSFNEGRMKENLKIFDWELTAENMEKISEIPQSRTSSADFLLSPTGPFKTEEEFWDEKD
The series is described as follows: LC-MS product formation, Michaelis-Menten fit. Particulars: reduction; 1 mM NADPH; Bis-tris, optimized pH and temperature (Table S12).

A further series has as its system PglaCOR. The series is described as follows: LC-MS product formation, Michaelis-Menten fit. The class given is biochemical, Papaver glaucum. The settings on record: reduction; 1 mM NADPH; Bis-tris, optimized pH and temperature (Table S12).
For another series, the system named is PtriCOR3. The series is described as follows: LC-MS product formation, Michaelis-Menten fit. The settings on record: reduction; 1 mM NADPH; Bis-tris, optimized pH and temperature (Table S12). The class given is biochemical, Papaver triniifolium.
Substrate in series [1]: COc1ccc(CC2=[N+](C)CCc3cc(OC)c(O)cc32)cc1O
The series is described as follows: LC-MS product formation, substrate-inhibition fit. The class given is biochemical, Papaver somniferum. The settings on record: reduction; 500 μM NADPH; Bis-tris, optimized pH and temperature (Table S12).

For orientation: Km means the concentration of substrate that gives half-maximal velocity. Turning to `COc1ccc(CC2=[N+](C)CCc3cc(OC)c(O)cc32)cc1O` [1,2-dehydroreticuline], the Km in the series on PburDRR is 5.5 ± 1 µM; with PglaDRR, 16.4 ± 2.3 µM; with PlasDRR(REPI), 12.3 ± 2.2 µM.

Take `COc1ccc2c3c1O[C@H]1C(=O)C=C[C@H]4[C@@H](C2)N(C)CC[C@]314` [codeinone]: the Km in the series with PapoCOR1 came out at 117 ± 17.8 µM; at PsomCOR, 17.4 ± 1.6 µM; in the series on PglaCOR it was 78.8 ± 5.6 µM; with PtriCOR3, 10 ± 0.9 µM.

B1: PsomDRR(REPI) (Papaver somniferum) (protein)
chain: MESSGVPVITLGSGKVMPVLGMGTFEKVGKGSERERLAILKAIEVGYRYFDTAAAYETEEVLGEAIAEALQLGLVKSRDELFISSMLWCTDAHADRVLLALQNSLRNLKLEYVDLYMLPFPASLKPGKITMDIPEEDICRMDYRSVWAAMEECQNLGFTKSIGVSNFSCKKLQELMATANIPPAVNQVEMSPAFQQKKLREYCNANNILVSAISVLGSNGTPWGSNAVLGSEVLKKIAMAKGKSVAQVSMRWVYEQGASLVVKSFSEERLRENLNIFDWELTKEDHEKIGEIPQCRILSAYFLVSPNGPFKSQEELWDDEA
The term kcat denotes the number of substrate molecules converted per active site and unit of time at saturation. The term kcat/Km denotes the turnover number divided by the Michaelis constant. In the case of B1, in series [1], the Km was 7.3 ± 2.2 µM, the kcat came to 5.36 ± 1.71 s⁻¹ and the kcat/Km came out at 735000 M⁻¹ s⁻¹.

For the origin of these results see paper PMC11522673 (Communications Biology, 2024).
